Data as given in patent publication US11559498B2, “Compositions and methods for in vivo lung and blood SNO repletion” (UNIVERSITY HOSPITALS CLEVELAND MEDICAL CENTER, priority 2020, dated 2023).

Assays:
[1] = cited from earlier work
[2] = tested on: airway hyper-responsiveness; test: Mouse airway hyper-responsiveness following hyperoxia; type: in vivo; conditions: hyperoxia 60% oxygen for 21 days, FIG. 6
SNO-Hb = SNO-Hb levels in the blood of humans after inhalation of ENO; type: in vivo; conditions: FIG. 1B
From the text: (§1) 3. Humans Each subject was fitted with an on-demand nonrebreather mask to regulate oxygen (FiO2) and ENO delivery. ENO was blended at 1-100 ppm.
(§2) Photolysis-chemiluminescence was used to quantify RBC SNO-Hb levels before and during ENO exposure. Blood was obtained through arterial lines and venipuncture. Method of sample preparation and measurement is as described in Hausladen (ref: Hausladen A et al. Assessment of nitric oxide signals by triiodide chemiluminescence. Proc. Natl. Acad. Sci. U.S.A 104, 2157-2162 (2007)).

[3] = metHb during ventilation with ENO; type: in vivo, pigs/dogs; conditions: 100 ppm ENO (maximum dose), ventilated large animals
From the text: (§3) 2. Large animals (pigs/dogs) are ventilated. ENO was mixed into the ventilation circuit using a custom-made gas-blending device (1-100 ppm). One hundred ppm ENO was selected as the maximum dose based on the amounts of metHb (<5%).

lung inflammation (BALF) = test: Hyperoxic injury-induced lung inflammation in mice; type: in vivo
Description: (§4) 1. Mice are either placed in chambers where ambient oxygen and ENO levels (1-100 ppm) are controlled, or mice are ventilated as in 2. below.
Bronchoalveolar lavage fluid (BAL), cell and protein content, differential cell analysis, lung fixation and histological sectioning, were performed as previously described (Groves, Am. J. Respir Cell Mol. Biol. 47, 776-783 (2012); Lien Van Hoecke J Vis Exp. 2017; (123): 55398)).

GSNO levels in the lungs = GSNO levels in the lungs after inhalation of ENO; type: in vivo; conditions: FIG. 1A
From the text: as §4, §3, §1

isolated human kidneys = test: Isolated human kidneys treated with ENO
SNO-Hb and muscle StO2 = test: Hypoxic humans dosed with ENO: muscle oxygenation and SNO-Hb; type: in vivo; conditions: at study completion, FiO2 fixed at 0.12, FIG. 2
From the text: as §1, §2

[4] = tested on: porcine circovirus type 2 (PCV2); test: PCV2 infection and replication; type: cell-based
lung injury = test: Rat ischemia/reperfusion (IR) preparation, lung injury; type: in vivo

## CC(=O)N[C@@H](CS)C(=O)O [N-acetylcysteine]
[1]; chloroform and ether
  solubility in chloroform and ether: practically insoluble
[1]; water and alcohol
  solubility in water and alcohol: soluble

## Cc1cc(C(N)=O)ccc1-n1c(CCC(=O)O)ccc1-c1ccc(-n2ccnc2)cc1 [N6022]
[2]; ip administration
  airway hyper-responsiveness: attenuated

## CCON=O [ENO, ethyl nitrite]
SNO-Hb
  SNO-Hb levels in the blood: significantly increases
[3]
  amounts of metHb: < 5%
Lung inflammation (BALF); ENO for 8 days, FIG. 3A
  lung (BALF) leukocyte concentrations: decreased
  lung (BALF) neutrophil concentrations: decreased
Lung inflammation (BALF); FIG. 3B
  accumulation of cytokine-induced neutrophil chemoattractant-1: attenuated
Lung inflammation (BALF); FIG. 3C
  expression of cytokine-induced neutrophil chemoattractant-1: attenuated
GSNO levels in the lungs; inhalation of ENO compared with inhaled NO
  GSNO levels in the lungs over inhaled NO: several fold
GSNO levels in the lungs; inhalation of ENO
  GSNO levels in the lungs: significantly increases
Isolated human kidneys; FIG. 4A
  tissue SNO levels: increased
Isolated human kidneys; FIG. 4B
  release of IL-10: increased
Isolated human kidneys; FIG. 4C
  level of IL-10: increased
SNO-Hb and muscle StO2
  SNO-Hb levels: doubled
  muscle StO2 (near infrared spectroscopy): at normoxic (prehypoxic) levels

## N[C@@H](CCC(=O)N[C@@H](CSN=O)C(=O)NCC(=O)O)C(=O)O [GSNO]
[2]; inhalation
  airway hyper-responsiveness: attenuated
[4]; FIG. 7A
  infection of PCV2: significantly reduces
[4]; FIG. 7B
  replication of PCV2: significantly reduces
Lung injury; FIG. 5A
  lung injury: significantly reduced
Lung injury; FIG. 5B
  expression of iNOS: significantly reduced
Lung injury; FIG. 5C
  expression of NF-kappaB: significantly reduced
